Patent US7563796B2, “Diphenylimidazopyrimidines as inhibitors of β-secretase” (Wyeth, priority 2005, dated 2009)
Counter-ions that a name gives are not always drawn.

Assays:
[1] = molecular target: human BACE1 (Homo sapiens, UniProt P56817); experiment: Fluorescent kinetic assay, BACE1 inhibition (substrate WABC-6 cleavage); format: biochemical; conditions: for IC50: 10 nM enzyme, 25 μM substrate WABC-6, pH 4.5, room temperature; for inhibition at 25 µM: read-out: BACE1 % inhibition at 25 μM, at 25 μM inhibitor
Description: Evaluation of BACE-1 Binding Affinity of Test Compounds
1. Fluorescent Kinetic Assays
Dilution and mixing steps: total reaction volume: 100 μL
100 μM substrate dilution in 1X PBS was prepared, and
Fluorescence Readings: Readings at λex 320 nm and λem 420 nm are taken every 40 sec for 30 min at room temperature and the linear slope for substrate cleavage rate (vi) determined.

Chain of human BACE1 (P56817 46-501): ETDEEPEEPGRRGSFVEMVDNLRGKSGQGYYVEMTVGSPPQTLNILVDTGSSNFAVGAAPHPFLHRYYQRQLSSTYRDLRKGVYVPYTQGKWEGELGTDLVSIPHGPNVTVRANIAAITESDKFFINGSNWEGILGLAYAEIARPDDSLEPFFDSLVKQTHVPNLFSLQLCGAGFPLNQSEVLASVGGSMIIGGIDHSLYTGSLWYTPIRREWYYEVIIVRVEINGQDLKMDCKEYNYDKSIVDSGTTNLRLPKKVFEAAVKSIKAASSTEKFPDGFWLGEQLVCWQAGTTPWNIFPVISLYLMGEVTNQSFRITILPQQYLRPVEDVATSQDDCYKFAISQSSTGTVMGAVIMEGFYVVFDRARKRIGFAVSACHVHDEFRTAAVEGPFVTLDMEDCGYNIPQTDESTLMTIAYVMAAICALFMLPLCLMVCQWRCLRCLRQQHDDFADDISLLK

| melting point [°C] | IC50 [1] [µM] | SMILES | also measured |
| --- | --- | --- | --- |
| 148 to 150 | – | CCC(=O)Nc1cccc(C2(c3ccc(OC(F)(F)F)cc3)N=C(N)N3CCCN=C32)c1 (stereo not shown) (as salt: hydrochloride) [Example 16, N-{3-[6-Amino-8-(4-trifluoromethoxy-phenyl)-2,3,4,8-tetrahydroimidazo[1,5-a]pyrimidin-8-yl]-phenyl}-propionamide hydrochloride] | – |
| 139 | 30 | CC(C)(C)c1ccc(C2(c3ccccc3)N=C(N)N3CCCN=C32)cc1 (stereo not shown) [Example 1, 8-(4-tert-Butylphenyl)-8-phenyl-2,3,4,8-tetrahydroimidazol[1,5-a]pyrimidin-6-amine] | – |
| 80 | 5.3 | NC1=NC(c2ccccc2)(c2cccc(Cc3ccccc3)c2)C2=NCCCN12 (stereo not shown) [Example 2, 8-(3-Benzylphenyl)-8-phenyl-2,3,4,8-tetrahydroimidazol[1,5-a]pyrimidin-6-amine] | – |
| 165 | 4.7 | NC1=NC(c2ccccc2)(c2cccc(Oc3ccc(F)cc3)c2)C2=NCCCN12 (stereo not shown) [Example 3, 8-[3-(4-Fluorophenoxy)phenyl]-8-phenyl-2,3,4,8-tetrahydroimidazo[1,5-a]pyrimidin-6-amine] | – |
| 132 | 7.1 | COc1ccc(Cc2cccc(C3(c4ccccc4)N=C(N)N4CCCN=C43)c2)cc1 (stereo not shown) [Example 4, 8-[3-(4-Methoxybenzyl)phenyl]-8-phenyl-2,3,4,8-tetrahydroimidazo[1,5-a]pyrimidin-6-amine] | – |
| 152 | 8.2 | NC1=NC(c2ccccc2)(c2cccc(Cc3ccc(F)cc3)c2)C2=NCCCN12 (stereo not shown) [Example 5, 8-[3-(4-Fluorobenzyl)phenyl]-8-phenyl-2,3,4,8-tetrahydroimidazo[1,5-a]pyrimidin-6-amine] | – |
| – | – | NC1=NC(c2ccccc2)(c2cccc(C(F)(F)F)c2)C2=NCCCN12 (stereo not shown) [Example 6, 8-Phenyl-8-[3-(trifluoromethyl)phenyl]-2,3,4,8-tetrahydroimidazo[1,5-a]pyrimidin-6-amine] | inhibition at 25 µM [1]: 48% |
| – | – | COc1cccc(C2(c3ccccc3)N=C(N)N3CCCN=C32)c1 (stereo not shown) [Example 7, 8-(3-Methoxyphenyl)-8-phenyl-2,3,4,8-tetrahydroimidazo[1,5-a]pyrimidin-6-amine] | inhibition at 25 µM [1]: 49% |
| – | 0.4 | CCCOc1cccc(C2(c3ccc(OC)c(C)c3)N=C(N)N3CCN=C32)c1 (stereo not shown) [Example 8, 7-(4-Methoxy-3-methylphenyl)-7-(3-propoxyphenyl)-2,7-dihydro-3H-imidazo[1.5-a]imidazol-5-amine] | – |
| – | 0.3 | CCCOc1cccc(C2(c3ccc(OC)c(C)c3)N=C(N)N3CCCN=C32)c1 (stereo not shown) [Example 9, 8-(4-Methoxy-3-methylphenyl)-8-(3-propoxyphenyl)-2,3,4,8-tetrahydroimidazo[1,5-a]pyrimidin-6-amine] | – |
| – | 1.1 | CCCOc1cccc(C2(c3ccc(OC)c(C)c3)N=C(N)N3CC(C)(C)CN=C32)c1 (stereo not shown) [Example 10, 8-(4-Methoxy-3-methylphenyl)-3,3-dimethyl-8-(3-propoxyphenyl)-2,3,4,8-tetrahydroimidazo[1,5-a]pyrimidin-6-amine] | – |
| 65 to 77 | 0.21 | NC1=NC(c2ccc(OC(F)(F)F)cc2)(c2cccc(CCC3CC3)c2)C2=NCCCN12 (stereo not shown) [Example 12, 8-[3-(2-Cyclopropyl-ethyl)-phenyl]-8-(4-trifluoromethoxy-phenyl)-2,3,4,8-tetrahydro-imidazo[1,5-a]pyrimidin-6-ylamine] | – |
| 89 to 111 | – | C=CCc1cccc(C2(c3ccc(OC(F)(F)F)cc3)N=C(N)N3CCCN=C32)c1 (stereo not shown) [Example 13, 8-(3-Allylphenyl)-8-(4-trifluoromethoxyphenyl)-2,3,4,8-tetrahydro-imidazo[1,5-a]pyrimidin-6-ylamine] | inhibition at 5 µM ([1]; read-out: BACE1 % inhibition at 5 μM, at 5 μM inhibitor): 53% |
| 75 to 79 | 1.43 | CCCc1cccc(C2(c3ccc(OC(F)(F)F)cc3)N=C(N)N3CCCN=C32)c1 (stereo not shown) [Example 14, 8-(3-Propyl-phenyl)-8-(4-trifluoromethoxy-phenyl)-2,3,4,8-tetrahydro-imidazo[1,5-a]pyrimidin-6-ylamine] | – |
| 129 to 136 | – | CCNC(=O)c1cccc(C2(c3ccc(OC(F)(F)F)cc3)N=C(N)N3CCCN=C32)c1 (stereo not shown) [Example 15, 3-[6-Amino-8-(4-trifluoromethoxy-phenyl)-2,3,4,8-tetrahydroimidazo[1,5-a]pyrimidin-8-yl]-N-ethyl-benzamide] | inhibition at 0.5 µM ([1]; read-out: BACE1 % inhibition at 0.5 μM, at 0.5 μM inhibitor): 40% |
| – | – | CCC(=O)Nc1cccc(C2(c3ccc(OC(F)(F)F)cc3)N=C(N)N3CCCN=C32)c1 (stereo not shown) [Example 16, N-{3-[6-Amino-8-(4-trifluoromethoxy-phenyl)-2,3,4,8-tetrahydroimidazo[1,5-a]pyrimidin-8-yl]-phenyl}-propionamide hydrochloride] | inhibition at […] ([1]; read-out: BACE1 % inhibition at […], at 2.5 μM inhibitor): 43% |
